EC50 data for 16 compounds are collected here from patent US20200016136A1 (VIIV HEALTHCARE UK (NO. 5) LIMITED, priority 2017, published 2020).

The test system of this test is NL-RLuc virus (recombinant NL4-3 HIV with Renilla Luciferase gene). In words: Inhibition of HIV replication (NL-RLuc virus in MT-2 cells, luciferase readout). The test is classed as cell-based, Human immunodeficiency virus (HIV). Conditions: MT2, 120 h. In outline:
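EC50 derived via median effect equation from at least 2 experiments, using luciferase expression as virus-growth readout. Replication-competent NL-RLuc reporter virus (nef partly replaced by Renilla luciferase) infected MT-2 cells with serial compound dilutions; 5-day incubation in RPMI 1640 plus 10% FBS.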
By EC50 is commonly meant the concentration needed to bring the measured effect to its halfway point. With `Cc1nc(C)c([C@H](OC(C)(C)C)C(=O)O)c(N2CCC(C)(C)CC2)c1-c1ccc2c(c1)CCN(c1ncc(F)c(N3CCOCC3)n1)C2` [Example 38, (2S)-2-(tert-Butoxy)-2-[4-(4,4-dimethylpiperidin-1-yl)-5-{2-[5-fluoro-4-(morpholin-4-yl)pyrimidin-2-yl]-1,2,3,4-tetrahydroisoquinolin-6-yl}-2,6-dimethylpyridin-3-yl]acetic Acid], the EC50 was found to be 3 nM.
Turning to `Cc1nc(C)c([C@H](OC(C)(C)C)C(=O)O)c(N2CCC(C)(C)CC2)c1-c1ccc2c(c1)CCN(c1ccnc(N3CCN(C)CC3)n1)C2` [Example 39, (2S)-2-(tert-Butoxy)-2-[4-(4,4-dimethylpiperidin-1-yl)-2,6-dimethyl-5-{2-[2-(4-methylpiperazin-1-yl)pyrimidin-4-yl]-1,2,3,4-tetrahydroisoquinolin-6-yl}pyridin-3-yl]acetic Acid], the EC50 stood at 5 nM.
As for `Cc1nc(C)c([C@H](OC(C)(C)C)C(=O)O)c(N2CCC(C)(C)CC2)c1-c1ccc2c(c1)CCN(c1nccc(N3CCN(C)CC3)n1)C2` [Example 40, (2S)-2-(tert-Butoxy)-2-[4-(4,4-dimethylpiperidin-1-yl)-2,6-dimethyl-5-{2-[4-(4-methylpiperazin-1-yl)pyrimidin-2-yl]-1,2,3,4-tetrahydroisoquinolin-6-yl}pyridin-3-yl]acetic Acid], the EC50 came out at 4 nM.
In the case of `Cc1nc(C)c([C@H](OC(C)(C)C)C(=O)O)c(N2CCC(C)(C)CC2)c1-c1ccc2c(c1)CCN(c1nccc(N3C[C@@H](C)N(C)[C@@H](C)C3)n1)C2` [Example 41, (2S)-2-(tert-Butoxy)-2-[4-(4,4-dimethylpiperidin-1-yl)-2,6-dimethyl-5-(2-{4-[(3R,5S)-3,4,5-trimethylpiperazin-1-yl]pyrimidin-2-yl}-1,2,3,4-tetrahydroisoquinolin-6-yl)pyridin-3-yl]acetic Acid] it was 3 nM; in that of `Cc1nc(C)c([C@H](OC(C)(C)C)C(=O)O)c(N2CCC(C)(C)CC2)c1-c1ccc2c(c1)CCN(c1ccnc(N3C4CCC3CN(C)C4)n1)C2` [Example 42, (2S)-2-(tert-Butoxy)-2-[4-(4,4-dimethylpiperidin-1-yl)-2,6-dimethyl-5-[2-(2-{3-methyl-3,8-diazabicyclo[3.2.1]octan-8-yl}pyrimidin-4-yl)-1,2,3,4-tetrahydroisoquinolin-6-yl]pyridin-3-yl]acetic Acid], 4 nM; in that of `Cc1nc(C)c([C@H](OC(C)(C)C)C(=O)O)c(N2CCC(C)(C)CC2)c1-c1ccc2c(c1)CCN(c1nccc(N3C4CCC3CN(C)C4)n1)C2` [Example 43, (2S)-2-(tert-Butoxy)-2-[4-(4,4-dimethylpiperidin-1-yl)-2,6-dimethyl-5-[2-(4-{3-methyl-3,8-diazabicyclo[3.2.1]octan-8-yl}pyrimidin-2-yl)-1,2,3,4-tetrahydroisoquinolin-6-yl]pyridin-3-yl]acetic Acid], 3 nM.
For `Cc1nc(C)c([C@H](OC(C)(C)C)C(=O)O)c(N2CCC(C)(C)CC2)c1-c1ccc2c(c1)CCN(c1nccc(N3CCN4CCC3CC4)n1)C2` [Example 44, (2S)-2-(tert-Butoxy)-2-{5-[2-(4-{1,4-diazabicyclo[3.2.2]nonan-4-yl}pyrimidin-2-yl)-1,2,3,4-tetrahydroisoquinolin-6-yl]-4-(4,4-dimethylpiperidin-1-yl)-2,6-dimethylpyridin-3-yl}acetic Acid] the value was 27 nM; for `Cc1nc(C)c([C@H](OC(C)(C)C)C(=O)O)c(N2CCC(C)(C)CC2)c1-c1ccc2c(c1)CCN(c1ccnc(N3CCS(=O)(=O)CC3)n1)C2` [Example 45, (S)-2-(tert-Butoxy)-2-(4-(4,4-dimethylpiperidin-1-yl)-5-(2-(2-(1,1-dioxidothiomorpholino)pyrimidin-4-yl)-1,2,3,4-tetrahydroisoquinolin-6-yl)-2,6-dimethylpyridin-3-yl)acetic Acid], 8 nM.
Turning to `Cc1nc(C)c([C@H](OC(C)(C)C)C(=O)O)c(N2CCC(C)(C)CC2)c1-c1ccc2c(c1)CCN(c1nccc(N3CCS(=O)(=O)CC3)n1)C2` [Example 46, (S)-2-(tert-Butoxy)-2-(4-(4,4-dimethylpiperidin-1-yl)-5-(2-(4-(1,1-dioxidothiomorpholino)pyrimidin-2-yl)-1,2,3,4-tetrahydroisoquinolin-6-yl)-2,6-dimethylpyridin-3-yl)acetic Acid], the EC50 was 9 nM.
Consider `Cc1ccc2c(n1)oc1c(N3CCc4cc(-c5cnc(C)c([C@H](OC(C)(C)C)C(=O)O)c5N5CCC(C)(C)CC5)ccc4C3)ncnc12` [Example 47, (2S)-2-(tert-Butoxy)-2-[4-(4,4-dimethylpiperidin-1-yl)-2-methyl-5-(2-{11-methyl-8-oxa-3,5,10-triazatricyclo[7.4.0.0^2,7]trideca-1(9),2,4,6,10,12-hexaen-6-yl}1,2,3,4tetrahydroisoquinolin-6-yl)pyridin-3-yl]acetic Acid], for which the EC50 is 1 nM.
In the case of `Cc1ncc(-c2ccc3c(c2)CCN(c2ncnc4c2oc2ncccc24)C3)c(N2CCC(C)(C)CC2)c1[C@H](OC(C)(C)C)C(=O)O` [Example 48, (2S)-2-(tert-Butoxy)-2-[4-(4,4-dimethylpiperidin-1-yl)-2-methyl-5-(2-{8-oxa-3,5,10-triazatricyclo[7.4.0.0^2,7]trideca-1(9),2,4,6,10,12-hexaen-6-yl}-1,2,3,4-tetrahydroisoquinolin-6-yl)pyridin-3-yl]acetic Acid] it was 0.6 nM; in that of `Cc1ncc(-c2ccc3c(c2)CCN(c2ncnc4c2oc2ccccc24)C3)c(N2CCC(C)(C)CC2)c1[C@H](OC(C)(C)C)C(=O)O` [Example 49, (2S)-2-(tert-Butoxy)-2-[4-(4,4-dimethylpiperidin-1-yl)-2-methyl-5-(2-{8-oxa-3,5-diazatricyclo[7.4.0.0^2,7]trideca-1(9),2(7),3,5,10,12-hexaen-6-yl}-1,2,3,4-tetrahydroisoquinolin-6-yl)pyridin-3-yl]acetic Acid], 1 nM; in that of `Cc1nc(C#N)c(-c2ccc3c(c2)CCN(c2ncnc4c2oc2ccccc24)C3)c(N2CCC(C)(C)CC2)c1[C@H](OC(C)(C)C)C(=O)O` [Example 50], 4 nM.
In the case of `Cc1cc(F)ccc1CN1CCc2cc(-c3cnc(C)c([C@H](OC(C)(C)C)C(=O)O)c3N3CCC(C)(C)CC3)ccc2C1` [Example 51, (2S)-2-(tert-Butoxy)-2-[4-(4,4-dimethylpiperidin-1-yl)-5-{2-[(4-fluoro-2-methylphenyl)methyl]-1,2,3,4-tetrahydroisoquinolin-6-yl}-2-methylpyridin-3-yl]acetic Acid] it was 4 nM.
In the case of `Cc1nc(C)c([C@H](OC(C)(C)C)C(=O)O)c(N2CCC(C)(C)CC2)c1-c1ccc2c(c1)CCN(Cc1ccccc1)C2` [Example 52, (2S)-2-[5-(2-Benzyl-1,2,3,4-tetrahydroisoquinolin-6-yl)-4-(4,4-dimethylpiperidin-1-yl)-2,6-dimethylpyridin-3-yl]-2-(tert-butoxy)acetic Acid] it was 3 nM; in that of `CCC(C)(C)O[C@H](C(=O)O)c1c(C)ncc(-c2ccc3c(c2)CCN(Cc2c(C)cccc2Cl)C3)c1N1CCC(C)(C)CC1` [Example 53, (2S)-2-(5-{2-[(2-Chloro-6-methylphenyl)methyl]-1,2,3,4-tetrahydroisoquinolin-6-yl}-4-(4,4-dimethylpiperidin-1-yl)-2-methylpyridin-3-yl)-2-[(2-methylbutan-2-yl)oxy]acetic Acid], 6 nM.
